Values joined by “and” are separate entries in the source; they are usually repeats but may differ in a detail not shown here. Equal values may be shown once. “Also recorded” adds a separate entry of the source. Peptide text beside a SMILES is read from it.
What was measured:
[1] = target: T1, M. haemolytica leukotoxin (Lkt) (Mannheimia haemolytica, UniProt P16535); assay: cell-based
[2] = test system: M. haemolytica serotype-1 strain SH789; assay: Calf challenge model: endobronchial inoculation of M. haemolytica with or without peptide; format: in vivo, Mannheimia haemolytica; details: for Gross pneumonic lesions as % of total lung volume, Lesion (%), individual calf: 2 mg peptide with 5×10^9 CFU M. haemolytica endobronchially, necropsy 90 hours post-inoculation; for Number of M. haemolytica isolated from the lungs at necropsy, individual calf / Number of M. haemolytica isolated from the lungs at necropsy, Mean / Gross pneumonic lesions as % of total lung volume, Mean (%): 2 mg peptide with 5×10^9 CFU endobronchially; for Duration of nasal discharge post-inoculation: study period 90 hours; for Number of M. haemolytica isolated from the lungs at necropsy, Mean: group mean; for Number of M. haemolytica isolated from the lungs at necropsy, Mean / Gross pneumonic lesions as % of total lung volume, Mean (%): 4 calves; for Gross pneumonic lesions as % of total lung volume, Mean (%): group mean±SEM, 90 hours
Procedure: M. Haemolytica serotype-1 strain SH789, isolated from the pneumonic lung of a calf, was streaked on blood agar plate and incubated overnight at 37° C. The following day few colonies were transferred to 3 ml of pre-warmed brain heart infusion (BHI) broth and incubated for 3 hours at 37° C. with constant shaking (200 cycles/minute). Two BHI agar plates were ‘lawned’ with this bacterial culture using sterile cotton swabs and incubated overnight at 37° C. The following day (day of inoculation) M. haemolytica was harvested from the BHI agar plates and transferred to 40 ml of pre-warmed BHI broth in a 250 ml flask, and incubated for 2.5 hours at 37° C. with constant shaking to obtain cultures in the logarithmic phase of growth. The culture was centrifuged at 6000×g at 20° C. for 30 minutes and the pellet was washed once with RPMI 1640 (without phenol red) medium. The bacterial pellet was re-suspended in 4 ml of RPMI 1640 (without phenol red), and 1 ml of this culture was added to 50 ml of pre-warmed RPMI 1640 (without phenol red) containing L-glutamine (1 ml L-glutamine/100 ml RPMI) in a 250 ml flask. Bacteria were incubated for 3 hours at 37° C. with constant shaking to obtain logarithmic phase culture and the optical density (OD) was measured. The culture was appropriately diluted to obtain a concentration of 1×10^9 CFU of M. haemolytica per ml. Five ml of this preparation per calf was used for endobronchial challenge. The bacterial concentration was confirmed the following day by culturing diluted aliquots of the inoculum on BHI agar and counting the resulting colonies.
The peptide (P17) containing amino acids 5-17 of bovine CD18 (NH2-RPQLLLLAGLLAL-OH) (SEQ ID NO.:71), and the peptide (PSC) containing the same amino acids as peptide P17 but in a randomly scrambled sequence (NH2-LRALLPLQLLAGL-OH) (SEQ ID NO.:72), were synthesized at Neopeptide (Cambridge, Mass.). Both peptides were re-suspended in dimethysulfoxide (ATCC) at a concentration of 20 mg/ml and stored at −20° C. until used. Based on the results of in vitro neutralization of Lkt by peptide P17, each calf was endobronchially inoculated with 2 mg of peptide in 5 ml of RPMI mixed with 5×10^9 CFU of M. haemolytica in 5 ml of RPMI.
All experimental protocols were approved by the Institutional Animal Care and Use Committee (IACUC) at Washington State University before the onset of the study. Twelve Holstein calves were randomly assigned to three experimental groups. Calves were matched for age when assigned into three groups. Prior to inoculation, serum samples and pharyngeal and nasal swabs were collected from all the calves. Group I calves received endobronchial injections of 5×10^9 CFU of M. haemolytica in 10 ml of RPMI. Group II calves received 5×10^9 CFU of M. haemolytica and 2 mg of peptide PSC in 10 ml of RPMI. Group III calves received 5×10^9 CFU of M. haemolytica and 2 mg of peptide P17 in 10 ml of RPMI. The inoculum was flushed down with an additional 10 ml of RPMI in all calves. Clinical disease in each calf was scored at different time points post-inoculation.
Physical examination of each calf was performed immediately prior to experimental infection and at 6, 18, 24, 42, 48, 66, 72, and 90 hours post-inoculation. Signs of clinical disease were allocated points according to the scoring system followed by Malazdrewich et al (2003; Table 3).
On necropsy lungs were removed and gross pneumonic lesion development in each lobe of lung was observed. The entire lung from each animal was sliced at 1 cm thickness and the total and pneumonic lesion areas were traced onto transparent acetate sheets. The traced portions were scanned into ImgaeJ, NIH Image (National Institute of Health; Nethesda, Md.), which was used to measure areas representing both the total serial section and the gross pneumonic lesions within it. […]

[3] = target: T1, M. haemolytica leukotoxin (Lkt)

## CSCC[C@H](N)C(=O)N[C@@H](CC(C)C)C(=O)N[C@@H](CCCNC(=N)N)C(=O)N[C@@H](CCC(N)=O)C(=O)N[C@@H](CCCNC(=N)N)C(=O)N1CCC[C@H]1C(=O)N[C@@H](CCC(N)=O)C(=O)N[C@@H](CC(C)C)C(=O)N[C@@H](CC(C)C)C(=O)N[C@@H](CC(C)C)C(=O)N[C@@H](CC(C)C)C(=O)N[C@@H](C)C(=O)NCC(=O)N[C@@H](CC(C)C)C(=O)N[C@@H](CC(C)C)C(=O)N[C@@H](C)C(=O)N[C@@H](CC(C)C)C(=O)N[C@@H](CCC(N)=O)C(=O)N[C@@H](CO)C(=O)N[C@H](C(=O)O)C(C)C [P1] (H-MLRQRPQLLLLAGLLALQSV-OH)
[1]
  IC50: 11.6 µM

## CC(C)C[C@H](NC(=O)CNC(=O)[C@H](C)NC(=O)[C@H](CC(C)C)NC(=O)[C@H](CC(C)C)NC(=O)[C@H](CC(C)C)NC(=O)[C@H](CC(C)C)NC(=O)[C@H](CCC(N)=O)NC(=O)[C@@H]1CCCN1C(=O)[C@@H](N)CCCNC(=N)N)C(=O)N[C@@H](CC(C)C)C(=O)N[C@@H](C)C(=O)N[C@@H](CC(C)C)C(=O)N[C@@H](CCC(N)=O)C(=O)N[C@@H](CO)C(=O)N[C@H](C(=O)N[C@@H](CC(C)C)C(=O)N[C@@H](CO)C(=O)N[C@@H](CCC(N)=O)C(=O)N[C@@H](CCC(=O)O)C(=O)O)C(C)C [P5] (H-RPQLLLLAGLLALQSVLSQE-OH)
[1]
  IC50: 5.55 µM

## NH2-LRALLPLQLLAGL-OH (H-LRALLPLQLLAGL-OH) [PSC, reference compound]
[2]; calves
  Gross pneumonic lesions as % of total lung volume, Lesion (%), individual calf: 4.07% and 10.70% and 9.01% and 24.57%
  Duration of nasal discharge post-inoculation: throughout the study period
[2]; calves, necropsy 90 hours
  Number of M. haemolytica isolated from the lungs at necropsy, individual calf: 1.89 × 10^7 CFU per gram of lung tissue and 6.73 × 10^5 CFU per gram of lung tissue and 6.50 × 10^7 CFU per gram of lung tissue and 1.87 × 10^7 CFU per gram of lung tissue
[2]; necropsy 90 hours
  Number of M. haemolytica isolated from the lungs at necropsy, Mean: 2.58 ± 1.374 × 10^7 CFU per gram of lung tissue
[2]
  Gross pneumonic lesions as % of total lung volume, Mean (%): 12.09 ± 4.39%
[3]
  Leukotoxic activity of supernatant fluids from M. haemolytica cultures incubated with peptide: had significant leukotoxic activity

## NH2-RPQLLLLAGLLAL-OH (H-RPQLLLLAGLLAL-OH; listed as Bos taurus) [P17]
[1]
  Inhibition of Lkt-induced cytolysis of bovine PMNs: strongly inhibited
  Inhibition of Lkt-induced cytolysis of ruminant leukocytes: effectively inhibited
[2]; calves, necropsy 90 hours, P<0.001
  M. haemolytica in lungs, fold less than in Group I (bacteria only) and Group II (PSC): 100- to 1000 fold and 100 to 1000 fold
[2]; calves, necropsy 90 hours, P=0.9
  Gross pneumonic lesions (percent lung volume) compared between groups: not statistically significant; also recorded: no less than those in calves inoculated with the control peptide PSC
[2]; calves
  Gross pneumonic lesions as % of total lung volume, Lesion (%), individual calf: 15.67% and 2.7% and 13.22% and 8.51%
  Duration of nasal discharge post-inoculation: up to 24 hours
[2]; calves, necropsy 90 hours
  Number of M. haemolytica isolated from the lungs at necropsy, individual calf: 5.29 × 10^3 CFU per gram of lung tissue and 4.92 × 10^2 CFU per gram of lung tissue and 5.70 × 10^4 CFU per gram of lung tissue and 8.00 × 10^2 CFU per gram of lung tissue
[2]; calves, 24 hours post-inoculation, P<0.05
  Mean clinical score compared with other groups at 24 hours post-inoculation: statistically significantly lower
[2]; calves, scored 6 to 90 hours post-inoculation
  Total clinical disease scores compared with Group I and II: lower than those for group I and II at all time points except 48 hours
[2]; necropsy 90 hours
  Number of M. haemolytica isolated from the lungs at necropsy, Mean: 1.589 ± 1.374 × 10^4 CFU per gram of lung tissue
[2]
  Gross pneumonic lesions as % of total lung volume, Mean (%): 10.53 ± 3.02%
[3]
  Leukotoxic activity of supernatant fluids from M. haemolytica cultures incubated with peptide: did not exhibit significant leukotoxic activity
